Experimental data reported in article PMC7550323 (Clinical Pharmacokinetics, 2020).

What was measured:
CYP3A4 [1] = target: T1, CYP3A4 (Homo sapiens, UniProt P08684); experiment: Effect of gilteritinib on the pharmacokinetics of midazolam; conditions: for AUC24, GLSM ratio (midazolam + gilteritinib/midazolam alone) / Cmax, GLSM ratio (midazolam + gilteritinib/midazolam alone): 100 indicates no change; for increase in AUC24 on coadministration of gilteritinib with midazolam / increase in Cmax on coadministration of gilteritinib with midazolam: relative to midazolam alone
[2] = human, in vivo; cited from earlier work
CYP3A4 [3] = target: T1, CYP3A4; experiment: clinical; conditions: plasma, po, 2 mg

T1 sequence (P08684 whole entry): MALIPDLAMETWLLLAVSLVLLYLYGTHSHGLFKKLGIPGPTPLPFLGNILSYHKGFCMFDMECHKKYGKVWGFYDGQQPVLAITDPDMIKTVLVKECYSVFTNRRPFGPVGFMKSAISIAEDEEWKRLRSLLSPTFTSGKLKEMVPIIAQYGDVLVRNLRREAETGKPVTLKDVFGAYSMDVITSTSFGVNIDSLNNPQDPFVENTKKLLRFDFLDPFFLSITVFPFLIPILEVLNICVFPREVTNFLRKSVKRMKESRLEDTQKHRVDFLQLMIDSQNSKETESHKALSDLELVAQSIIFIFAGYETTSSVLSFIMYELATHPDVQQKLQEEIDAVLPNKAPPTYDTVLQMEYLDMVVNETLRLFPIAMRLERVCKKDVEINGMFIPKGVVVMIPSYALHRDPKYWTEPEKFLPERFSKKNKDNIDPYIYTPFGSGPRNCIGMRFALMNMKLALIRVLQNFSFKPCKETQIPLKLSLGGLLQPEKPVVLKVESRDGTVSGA

SMILES | AUC24, GLSM ratio (midazolam + gilteritinib/midazolam alone) (CYP3A4 [1]; N = 8) [%] | Cmax, GLSM ratio (midazolam + gilteritinib/midazolam alone) (CYP3A4 [1]; N = 9) [%] | AUC24, MDZ + gilteritinib (GLSM) (CYP3A4 [1]; midazolam 2 mg oral on Cycle 1 Day 15 with gilteritinib 300 mg QD, N = 8) [ng·h/mL] | Cmax, MDZ + gilteritinib (GLSM) (CYP3A4 [1]; midazolam 2 mg oral on Cycle 1 Day 15 with gilteritinib 300 mg QD, N = 9) [ng/mL] | AUC24, MDZ alone (GLSM) (CYP3A4 [1]; midazolam 2 mg oral on Day-1, N = 8) [ng·h/mL] | Cmax, MDZ alone (GLSM) (CYP3A4 [1]; midazolam 2 mg oral on Day-1, N = 9) [ng/mL] | increase in AUC24 on coadministration of gilteritinib with midazolam (CYP3A4 [1]) [%] | increase in Cmax on coadministration of gilteritinib with midazolam (CYP3A4 [1]) | half-life [2] [h] | increase in exposure when coadministered with itraconazole [2] [fold] | increase in exposure when coadministered with ketoconazole [2] [fold] | increase in exposure with a high-fat meal [2] [fold] | AUC (CYP3A4 [3]) [ng·h/mL] | Cmax (CYP3A4 [3]) [ng/mL]
OCc1ncc2n1-c1ccc(Cl)cc1C(c1ccccc1F)=NC2 [1-hydroxymidazolam] | 149.9 | 123.5 | 17.0 | 4.3 | 11.3 | 3.5 | ~50 | approximately 23% |  |  |  |  |  | 
CO[C@@H]1[C@H](N(C)C(=O)c2ccccc2)C[C@H]2O[C@]1(C)n1c3ccccc3c3c4c(c5c6ccccc6n2c5c31)C(=O)NC4 [midostaurin] |  |  |  |  |  |  |  |  | 21 | 2.1 | 10.4 | 1.6 |  | 
Cc1ncc2n1-c1ccc(Cl)cc1C(c1ccccc1F)=NC2 [midazolam, reference compound] | 109.5 | 111.6 |  |  |  |  | 10 | 10% |  |  |  |  | 54.3 | 14.3
